Measurements published in patent publication US9499550B2 (BRISTOL-MYERS SQUIBB COMPANY, priority 2012, dated 2016).
Where two headings read alike, the source gives them in different places.

Experiments:
[1] = test system: HCV genotype 1a (H77 strain) replicon in HUH-7 cells; test: HCV replicon luciferase reporter assay, genotype 1a; assay type: cell-based; details: Hepatitis C virus, Huh-7, 72 h, 3 days incubation, read-out: LE_1a (EC50, range)
Summary of the method: (§1)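 Replicon inhibition for both genotypes was measured as Renilla luciferase signal (EnduRen, 7.5 μM final, 2 h) after 3-day, 37° C exposure of replicon-bearing HUH-7 cells in 4% FCS DMEM, 0.5% DMSO. The 1b construct carries S1179I; the 1a H77 construct carries P1496L and S2204I. Twenty-point, 3-fold dilutions were fitted four-parametrically for EC50, and CC50 was taken from multiplexed Cell Titer-Blue.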

[2] = test system: HCV genotype 1b (Con1) replicon in HUH-7 cells; test: HCV replicon luciferase reporter assay, genotype 1b; assay type: cell-based; details: Hepatitis C virus, Huh-7, 72 h, 3 days incubation, read-out: LE_1b (EC50, range)
Summary of the method: as §1

[3] = HCV genotype 1a replicon luciferase assay, range class
[4] = HCV genotype 1b replicon luciferase assay, range class
[5] = HCV genotype 1a replicon luciferase
[6] = HCV genotype 1b replicon luciferase
[7] = GETYPE1A, HCV genotype 1a replicon luciferase
[8] = GETYPE1B, HCV genotype 1b replicon luciferase

Structure (SMILES)	EC50 [1, 3] [nM]	EC50 [2, 4] [nM]	EC50 [1, 5] [nM]	EC50 [2, 6] [nM]	other results
COCCn1nc(O[C@@H]2C[C@H]3C(=O)N[C@]4(C(=O)NS(=O)(=O)C5(C)CC5)C[C@H]4/C=C\CC[C@@H](C)C[C@@H](C)[C@H](NC(=O)OC(C)(C)C)C(=O)N3C2)c2ccccc2c1=O [Compound 1006, tert-butyl ((2R,6S,7R,9R,13aS,14aR,16aS,Z)-2-((3-(2-methoxyethyl)-4-oxo-3,4-dihydrophthalazin-1-yl)oxy)-7,9-dimethyl-14a-(((1-methylcyclopropyl)sulfonyl)carbamoyl)-5,16-dioxo-1,2,3,5,6,7,8,9,10,11,13a,14,14a,15,16,16a-hexadecahydrocyclopropa[e]pyrrolo[1,2-a][1,4]diazacyclopentadecin-6-yl)carbamate]	4.82 to 103	4.82 to 103	–	–	–
COc1ccc2c(O[C@@H]3C[C@H]4C(=O)N[C@]5(C(=O)NS(=O)(=O)C6(CF)CC6)C[C@H]5/C=C\CC[C@H](C)C[C@@H](C)[C@H](NC(=O)OC(C)(C)C(F)(F)F)C(=O)N4C3)nc(N3CCCC3)nc2c1 [Compound 3018, 1,1,1-trifluoro-2-methylpropan-2-yl((2R,6S,7R,9S,13aS,14aR,16aS,Z)-14a-(((1-(fluoromethyl)cyclopropyl)sulfonyl)carbamoyl)-2-((7-methoxy-2-(pyrrolidin-1-yl)quinazolin-4-yl)oxy)-7,9-dimethyl-5,16-dioxo-1,2,3,5,6,7,8,9,10,11,13a,14,14a,15,16,16a-hexadecahydrocyclopropa[e]pyrrolo[1,2-a][1,4]diazacyclopentadecin-6-yl)carbamate]	4.82 to 103	4.82 to 103	–	–	–
COc1cnc(O[C@@H]2C[C@H]3C(=O)N[C@]4(C(=O)NS(=O)(=O)C5(CO)CC5)C[C@H]4/C=C\CC[C@H](C)C[C@@H](C)[C@H](NC(=O)OC(C)(C)C)C(=O)N3C2)c2ccccc12 [Compound 4115, tert-butyl (2R,6S,7R,9S,13aS,14aR,16aS,Z)-14a-(1-(hydroxymethyl)cyclopropylsulfonylcarbamoyl)-2-(4-methoxyisoquinolin-1-yloxy)-7,9-dimethyl-5,16-dioxo-1,2,3,5,6,7,8,9,10,11,13a,14,14a,15,16,16a-hexadecahydrocyclopropa[e]pyrrolo[1,2-a][1,4]diazacyclopentadecin-6-ylcarbamate]	–	–	< 5.46	< 5.46	–
COc1cc(F)cc2c(O[C@@H]3C[C@H]4C(=O)N[C@]5(C(=O)NS(=O)(=O)C6(C)CC6)C[C@H]5/C=C\CC[C@@H](C)C[C@@H](C)[C@H](NC(=O)OC(C)(C)C)C(=O)N4C3)nccc12 [Compound 3154, tert-butyl ((2R,6S,7R,9R,13aS,14aR,16aS,Z)-2-((7-fluoro-5-methoxyisoquinolin-1-yl)oxy)-7,9-dimethyl-14a-(((1-methylcyclopropyl)sulfonyl)carbamoyl)-5,16-dioxo-1,2,3,5,6,7,8,9,10,11,13a,14,14a,15,16,16a-hexadecahydrocyclopropa[e]pyrrolo[1,2-a][1,4]diazacyclopentadecin-6-yl)carbamate]	< 5.46	< 5.46	–	–	–
CC[C@@H]1C[C@H](C)CC/C=C\[C@@H]2C[C@@]2(C(=O)NS(=O)(=O)C2(C)CC2)NC(=O)[C@@H]2C[C@@H](Oc3nccc4cc(OC)c(F)cc34)CN2C(=O)[C@H]1NC(=O)OC(C)(C)C(C)(F)F [Compound 5435, 3,3-difluoro-2-methylbutan-2-yl((2R,6S,7R,9R,13aS,14aR,16aS,Z)-7-ethyl-2-((7-fluoro-6-methoxyisoquinolin-1-yl)oxy)-9-methyl-14a-(((1-methylcyclopropyl)sulfonyl)carbamoyl)-5,16-dioxo-1,2,3,5,6,7,8,9,10,11,13a,14,14a,15,16,16a-hexadecahydrocyclopropa[e]pyrrolo[1,2-a][1,4]diazacyclopentadecin-6-yl)carbamate]	–	–	1.01 to 5	1.01 to 5	–
COc1ccc2c(O[C@@H]3C[C@H]4C(=O)N[C@]5(C(=O)NS(=O)(=O)C6CC6)C[C@H]5/C=C\CC[C@H](C)C[C@@H](C)[C@H](NC(=O)OC(C)(C)C)C(=O)N4C3)nc(-c3ccc(N4CCOCC4)cc3)cc2c1 [Compound 5192, tert-butyl ((2R,6S,7R,9S,13aS,14aR,16aS,Z)-14a-((cyclopropylsulfonyl)carbamoyl)-2-((6-methoxy-3-(4-morpholinophenyl)isoquinolin-1-yl)oxy)-7,9-dimethyl-5,16-dioxo-1,2,3,5,6,7,8,9,10,11,13a,14,14a,15,16,16a-hexadecahydrocyclopropa[e]pyrrolo[1,2-a][1,4]diazacyclopentadecin-6-yl)carbamate]	–	–	< 5.46	< 5.46	–
CC[C@@H]1C[C@H](C)CC/C=C\[C@@H]2C[C@@]2(C(=O)NS(=O)(=O)C2CC2)NC(=O)[C@@H]2C[C@@H](Oc3nc4cc(OC)ccc4nc3C(F)(F)F)CN2C(=O)[C@H]1NC(=O)OC(C)(C)C(F)(F)F [Compound 4263]	–	–	–	–	EC50 [1, 7]: 1.01 to 5 nM; EC50 [2, 8]: 0.51 to 1 nM
CC[C@@H]1C[C@H](C)CC/C=C\[C@@H]2C[C@@]2(C(=O)NS(=O)(=O)C2(CF)CC2)NC(=O)[C@@H]2C[C@@H](Oc3nccc4cc(OC)ccc34)CN2C(=O)[C@H]1NC(=O)OC(C)(C)C [Compound 4204, tert-butyl (2R,6S,7R,9R,13aS,14aR,16aS,Z)-7-ethyl-14a-(1-(fluoromethyl)cyclopropylsulfonylcarbamoyl)-2-(6-methoxyisoquinolin-1-yloxy)-9-methyl-5,16-dioxo-1,2,3,5,6,7,8,9,10,11,13a,14,14a,15,16,16a-hexadecahydrocyclopropa[e]pyrrolo[1,2-a][1,4]diazacyclopentadecin-6-ylcarbamate]	–	–	< 5.46	< 5.46	–
COc1ccc2c(O[C@@H]3C[C@H]4C(=O)N[C@]5(C(=O)NS(=O)(=O)C6(CF)CC6)C[C@H]5/C=C\CC[C@@H](C)C[C@@H](C)[C@H](NC(=O)OC(C)(C)C)C(=O)N4C3)nc(OC)nc2c1 [Compound 3015, tert-butyl ((2R,6S,7R,9R,13aS,14aR,16aS,Z)-2-((2,7-dimethoxyquinazolin-4-yl)oxy)-14a-(((1-(fluoromethyl)cyclopropyl)sulfonyl)carbamoyl)-7,9-dimethyl-5,16-dioxo-1,2,3,5,6,7,8,9,10,11,13a,14,14a,15,16,16a-hexadecahydrocyclopropa[e]pyrrolo[1,2-a][1,4]diazacyclopentadecin-6-yl)carbamate]	< 5.46	< 5.46	–	–	–
CCOc1nnc(O[C@@H]2C[C@H]3C(=O)N[C@]4(C(=O)NS(=O)(=O)C5(C)CC5)C[C@H]4/C=C\CC[C@@H](C)C[C@@H](CC)[C@H](NC(=O)OC(C)(C)C(F)(F)F)C(=O)N3C2)c2ccccc12 [Compound 5049, 1,1,1-trifluoro-2-methylpropan-2-yl((2R,6S,7R,9R,13aS,14aR,16aS,Z)-2-((4-ethoxyphthalazin-1-yl)oxy)-7-ethyl-9-methyl-14a-(((1-methylcyclopropyl)sulfonyl)carbamoyl)-5,16-dioxo-1,2,3,5,6,7,8,9,10,11,13a,14,14a,15,16,16a-hexadecahydrocyclopropa[e]pyrrolo[1,2-a][1,4]diazacyclopentadecin-6-yl)carbamate]	–	–	< 5.46	< 5.46	–
CC(C)Oc1cc2ccccc2c(O[C@@H]2C[C@H]3C(=O)N[C@]4(C(=O)NS(=O)(=O)C5(CF)CC5)C[C@H]4/C=C\CC[C@@H](C)C[C@@H](C)[C@H](NC(=O)OC(C)(C)C(C)(F)F)C(=O)N3C2)n1 [Compound 6118, 3,3-difluoro-2-methylbutan-2-yl((2R,6S,7R,9R,13aS,14aR,16aS,Z)-14a-(((1-(fluoromethyl)cyclopropyl)sulfonyl)carbamoyl)-2-((3-isopropoxyisoquinolin-1-yl)oxy)-7,9-dimethyl-5,16-dioxo-1,2,3,5,6,7,8,9,10,11,13a,14,14a,15,16,16a-hexadecahydrocyclopropa[e]pyrrolo[1,2-a][1,4]diazacyclopentadecin-6-yl)carbamate]	–	–	1.01 to 5	1.01 to 5	–
CC[C@@H]1C[C@H](C)CC/C=C\[C@@H]2C[C@@]2(C(=O)NS(=O)(=O)C2(C)CC2)NC(=O)[C@@H]2C[C@@H](Oc3cc(-n4cccn4)nc4cc(OC)ccc34)CN2C(=O)[C@H]1NC(=O)OC(C)(C)C(F)(F)F [Compound 4246]	–	–	–	–	EC50 [1, 7]: 1.01 to 5 nM; EC50 [2, 8]: 0.51 to 1 nM
COc1nnc(O[C@@H]2C[C@H]3C(=O)N[C@]4(C(=O)NS(=O)(=O)C5CC5)C[C@H]4/C=C\CC[C@@H](C)C[C@@H](C)[C@H](NC(=O)OC(C)(C)C)C(=O)N3C2)c2ccccc12 [Compound 5004, tert-butyl ((2R,6S,7R,9R,13aS,14aR,16aS,Z)-14a-((cyclopropylsulfonyl)carbamoyl)-2-((4-methoxyphthalazin-1-yl)oxy)-7,9-dimethyl-5,16-dioxo-1,2,3,5,6,7,8,9,10,11,13a,14,14a,15,16,16a-hexadecahydrocyclopropa[e]pyrrolo[1,2-a][1,4]diazacyclopentadecin-6-yl)carbamate]	–	–	< 5.46	< 5.46	–
